Laboratory results from PubChem BioAssay AID1963966 (Molecular Pharmacology Branch, DTP, NCI, 2024).

System: 935938-334-R-J1-PDC spheroids with HUVEC/MSC, viability
Assay: Anticancer human tumor 935938-334-R-J1-PDC patient-derived small intestine adenocarcinoma cell line growth inhibition [PI3K]
Conditions: for IC50: curve of first compound; for viability, T/C: stronger effect = lower value
Procedure, shortened: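 Viability of mixed-cell spheroids was determined after exposure to pairwise combinations, one partner being inavolisib, alpelisib, duvelisib or copanlisib. Highest tested concentration matched clinical Cmax where known and 10 microM where not, descending in half-log steps.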

[1] = second compound 0.00316 µM, first compound 0.0316 µM
[2] = second compound 0.00316 µM, first compound 0.1 µM
[3] = second compound 0.00316 µM, first compound 0.316 µM
[4] = second compound 0.00316 µM, first compound 1 µM
[5] = second compound 0.00316 µM, first compound 3.16 µM
[6] = second compound 0.00316 µM, first compound 10 µM
[7] = second compound 0.01 µM, first compound 0.0316 µM
[8] = second compound 0.01 µM, first compound 0.1 µM
[9] = second compound 0.01 µM, first compound 0.316 µM
[10] = second compound 0.01 µM, first compound 1 µM
[11] = second compound 0.01 µM, first compound 3.16 µM
[12] = second compound 0.01 µM, first compound 10 µM
[13] = second compound 0.0316 µM, first compound 0.0316 µM
[14] = second compound 0.0316 µM, first compound 0.1 µM
[15] = second compound 0.0316 µM, first compound 0.316 µM
[16] = second compound 0.0316 µM, first compound 1 µM
[17] = second compound 0.0316 µM, first compound 3.16 µM
[18] = second compound 0.0316 µM, first compound 10 µM
[19] = second compound 0.1 µM, first compound 0.0316 µM
[20] = second compound 0.1 µM, first compound 0.1 µM
[21] = second compound 0.1 µM, first compound 0.316 µM
[22] = second compound 0.1 µM, first compound 1 µM
[23] = second compound 0.1 µM, first compound 3.16 µM
[24] = second compound 0.1 µM, first compound 10 µM
[25] = second compound 0.316 µM, first compound 0.0316 µM
[26] = second compound 0.316 µM, first compound 0.1 µM
[27] = second compound 0.316 µM, first compound 0.316 µM
[28] = second compound 0.316 µM, first compound 1 µM
[29] = second compound 0.316 µM, first compound 3.16 µM
[30] = second compound 0.316 µM, first compound 10 µM
[31] = second compound 1 µM, first compound 0.0316 µM
[32] = second compound 1 µM, first compound 0.1 µM
[33] = second compound 1 µM, first compound 0.316 µM
[34] = second compound 1 µM, first compound 1 µM
[35] = second compound 1 µM, first compound 3.16 µM
[36] = second compound 1 µM, first compound 10 µM
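Further: compound exposure lasted seven days before viability was read.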
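Wherever viability, T/C is given: percent of vehicle DMSO treated spheroid viability so 100% = untreated.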

`C#Cc1c(F)ccc2cc(O)cc(-c3ncc4c(N5CC6CCC(C5)N6)nc(OCC56CCCN5CC(F)C6)nc4c3F)c12` (stereo not drawn) + CC(Nc1ccc2c(c1)OCCn1cc(N3C(=O)OCC3C(F)F)nc1-2)C(N)=O was tested, and the IC50 (second compound 0.00316 µM) was 3.79 µM, the IC50 (second compound 0.01 µM) was 3.11 µM and the IC50 (second compound 0.0316 µM) was 1.87 µM. It also gave an IC50 (second compound 0.1 µM) of 0.922 µM, an IC50 (second compound 0.316 µM) of 0.513 µM and an IC50 (second compound 1 µM) of 0.102 µM. The viability, T/C [1] was 86.7%, the viability, T/C [2] was 88.4% and the viability, T/C [3] was 76%. It also gave a viability, T/C [4] of 67.9%, a viability, T/C [5] of 52.8% and a viability, T/C [6] of 36.1%. The viability, T/C [7] was 106%, the viability, T/C [8] was 74% and the viability, T/C [9] was 80.1%. It also gave a viability, T/C [10] of 69.1%, a viability, T/C [11] of 52% and a viability, T/C [12] of 31.1%. It also gave a viability, T/C [13] of 94.7%, a viability, T/C [14] of 80.1% and a viability, T/C [15] of 83.2%. For the same molecule, the viability, T/C [16] was 61.3%, the viability, T/C [17] was 39.7% and the viability, T/C [18] was 28.8%. It also gave a viability, T/C [19] of 89.1%, a viability, T/C [20] of 84.1% and a viability, T/C [21] of 47.5%. It also gave a viability, T/C [22] of 56.7%, a viability, T/C [23] of 39.7% and a viability, T/C [24] of 28.2%. For the same molecule, the viability, T/C [25] was 67.6%, the viability, T/C [26] was 71% and the viability, T/C [27] was 60.7%. The viability, T/C [28] was 34.7%, the viability, T/C [29] was 31.3% and the viability, T/C [30] was 22.8%. For the same molecule, the viability, T/C [31] was 49.5%, the viability, T/C [32] was 51.2% and the viability, T/C [33] was 47.5%. For the same molecule, the viability, T/C [34] was 35.2%, the viability, T/C [35] was 25% and the viability, T/C [36] was 17.2%.
With `C=CC(=O)N1CCN(c2nc(=O)n(-c3c(C)ccnc3C(C)C)c3nc(-c4c(O)cccc4F)c(F)cc23)C(C)C1` (stereo not drawn) + CC(Nc1ccc2c(c1)OCCn1cc(N3C(=O)OCC3C(F)F)nc1-2)C(N)=O the IC50 (second compound 0.00316 µM) was greater than 10 µM, the IC50 (second compound 0.01 µM) was greater than 10 µM and the IC50 (second compound 0.0316 µM) was greater than 10 µM. For the same molecule, the IC50 (second compound 0.1 µM) was greater than 10 µM, the IC50 (second compound 0.316 µM) was greater than 10 µM and the IC50 (second compound 1 µM) was 8.04 µM. For the same molecule, the viability, T/C [1] was 101%, the viability, T/C [2] was 99.6% and the viability, T/C [3] was 103%. For the same molecule, the viability, T/C [4] was 99.3%, the viability, T/C [5] was 91% and the viability, T/C [6] was 106%. For the same molecule, the viability, T/C [7] was 96.9%, the viability, T/C [8] was 85% and the viability, T/C [9] was 90.4%. The viability, T/C [10] was 87.9%, the viability, T/C [11] was 92.5% and the viability, T/C [12] was 98.2%. For the same molecule, the viability, T/C [13] was 134%, the viability, T/C [14] was 119% and the viability, T/C [15] was 101%. For the same molecule, the viability, T/C [16] was 86%, the viability, T/C [17] was 85.8% and the viability, T/C [18] was 93.3%. For the same molecule, the viability, T/C [19] was 88.4%, the viability, T/C [20] was 84.4% and the viability, T/C [21] was 98.3%. The viability, T/C [22] was 104%, the viability, T/C [23] was 89.5% and the viability, T/C [24] was 97.7%. The viability, T/C [25] was 80.9%, the viability, T/C [26] was 80.5% and the viability, T/C [27] was 71%. It also gave a viability, T/C [28] of 74.2%, a viability, T/C [29] of 72.5% and a viability, T/C [30] of 68.1%. For the same molecule, the viability, T/C [31] was 86%, the viability, T/C [32] was 67.6% and the viability, T/C [33] was 66.3%. It also gave a viability, T/C [34] of 80.3%, a viability, T/C [35] of 86.9% and a viability, T/C [36] of 43.5%.
With `CC(Cn1ccc(-c2ccc(C#N)c(Cl)c2)n1)NC(=O)c1cc(C(C)O)[nH]n1` (stereo not drawn) + CC(Nc1ccc2c(c1)OCCn1cc(N3C(=O)OCC3C(F)F)nc1-2)C(N)=O the IC50 (second compound 0.00316 µM) was greater than 10 µM, the IC50 (second compound 0.01 µM) was greater than 10 µM and the IC50 (second compound 0.0316 µM) was greater than 10 µM. For the same molecule, the IC50 (second compound 0.1 µM) was 8.81 µM, the IC50 (second compound 0.316 µM) was 7.05 µM and the IC50 (second compound 1 µM) was 4.18 µM. The viability, T/C [1] was 66.3%, the viability, T/C [2] was 106% and the viability, T/C [3] was 91.7%. It also gave a viability, T/C [4] of 82.5%, a viability, T/C [5] of 105% and a viability, T/C [6] of 53.2%. It also gave a viability, T/C [7] of 89%, a viability, T/C [8] of 72.4% and a viability, T/C [9] of 97.3%. It also gave a viability, T/C [10] of 119%, a viability, T/C [11] of 96.7% and a viability, T/C [12] of 56.6%. The viability, T/C [13] was 78.5%, the viability, T/C [14] was 89.6% and the viability, T/C [15] was 96.6%. The viability, T/C [16] was 94.1%, the viability, T/C [17] was 90.5% and the viability, T/C [18] was 59.9%. It also gave a viability, T/C [19] of 61.6%, a viability, T/C [20] of 60.9% and a viability, T/C [21] of 83.8%. For the same molecule, the viability, T/C [22] was 105%, the viability, T/C [23] was 84.9% and the viability, T/C [24] was 46.4%. The viability, T/C [25] was 96.7%, the viability, T/C [26] was 81.7% and the viability, T/C [27] was 68.2%. The viability, T/C [28] was 82.4%, the viability, T/C [29] was 75.3% and the viability, T/C [30] was 39.2%. It also gave a viability, T/C [31] of 64.9%, a viability, T/C [32] of 43% and a viability, T/C [33] of 83.7%. For the same molecule, the viability, T/C [34] was 75.5%, the viability, T/C [35] was 49.6% and the viability, T/C [36] was 29%.
`CC1(C)CCC(Nc2ncc(C(F)(F)F)c(-c3c[nH]c4c(P(C)(C)=O)c(C#N)ccc34)n2)CN1` (stereo not drawn) + CC(Nc1ccc2c(c1)OCCn1cc(N3C(=O)OCC3C(F)F)nc1-2)C(N)=O gave an IC50 (second compound 0.00316 µM) of less than 0.0316 µM, an IC50 (second compound 0.01 µM) of less than 0.0316 µM and an IC50 (second compound 0.0316 µM) of less than 0.0316 µM. For the same molecule, the IC50 (second compound 0.1 µM) was less than 0.0316 µM, the IC50 (second compound 0.316 µM) was less than 0.0316 µM and the IC50 (second compound 1 µM) was less than 0.0316 µM. It also gave a viability, T/C [1] of 46.2%, a viability, T/C [2] of 35% and a viability, T/C [3] of 29.9%. The viability, T/C [4] was 33.8%, the viability, T/C [5] was 25.8% and the viability, T/C [6] was 7.62%. The viability, T/C [7] was 42.7%, the viability, T/C [8] was 36.3% and the viability, T/C [9] was 27.2%. For the same molecule, the viability, T/C [10] was 28.6%, the viability, T/C [11] was 30.4% and the viability, T/C [12] was 5.01%. The viability, T/C [13] was 42.5%, the viability, T/C [14] was 40.5% and the viability, T/C [15] was 33.8%. It also gave a viability, T/C [16] of 27.1%, a viability, T/C [17] of 35.5% and a viability, T/C [18] of 6.2%. It also gave a viability, T/C [19] of 36.8%, a viability, T/C [20] of 39.5% and a viability, T/C [21] of 30%. For the same molecule, the viability, T/C [22] was 29.6%, the viability, T/C [23] was 31.3% and the viability, T/C [24] was 4.61%. The viability, T/C [25] was 37.5%, the viability, T/C [26] was 29.5% and the viability, T/C [27] was 27.2%. The viability, T/C [28] was 29.2%, the viability, T/C [29] was 23.1% and the viability, T/C [30] was 6.76%. For the same molecule, the viability, T/C [31] was 29.5%, the viability, T/C [32] was 24% and the viability, T/C [33] was 24.7%. For the same molecule, the viability, T/C [34] was 22.9%, the viability, T/C [35] was 18.3% and the viability, T/C [36] was 3.56%.
